Assay results reported in US20240384268A1, “Oligonucleotides” (Hudson Institute of Medical Research, priority 2021, published 2024).

Biological target: T1, TLR8 (Homo sapiens, UniProt Q9NR97)
T1 sequence (Q9NR97 27-1041): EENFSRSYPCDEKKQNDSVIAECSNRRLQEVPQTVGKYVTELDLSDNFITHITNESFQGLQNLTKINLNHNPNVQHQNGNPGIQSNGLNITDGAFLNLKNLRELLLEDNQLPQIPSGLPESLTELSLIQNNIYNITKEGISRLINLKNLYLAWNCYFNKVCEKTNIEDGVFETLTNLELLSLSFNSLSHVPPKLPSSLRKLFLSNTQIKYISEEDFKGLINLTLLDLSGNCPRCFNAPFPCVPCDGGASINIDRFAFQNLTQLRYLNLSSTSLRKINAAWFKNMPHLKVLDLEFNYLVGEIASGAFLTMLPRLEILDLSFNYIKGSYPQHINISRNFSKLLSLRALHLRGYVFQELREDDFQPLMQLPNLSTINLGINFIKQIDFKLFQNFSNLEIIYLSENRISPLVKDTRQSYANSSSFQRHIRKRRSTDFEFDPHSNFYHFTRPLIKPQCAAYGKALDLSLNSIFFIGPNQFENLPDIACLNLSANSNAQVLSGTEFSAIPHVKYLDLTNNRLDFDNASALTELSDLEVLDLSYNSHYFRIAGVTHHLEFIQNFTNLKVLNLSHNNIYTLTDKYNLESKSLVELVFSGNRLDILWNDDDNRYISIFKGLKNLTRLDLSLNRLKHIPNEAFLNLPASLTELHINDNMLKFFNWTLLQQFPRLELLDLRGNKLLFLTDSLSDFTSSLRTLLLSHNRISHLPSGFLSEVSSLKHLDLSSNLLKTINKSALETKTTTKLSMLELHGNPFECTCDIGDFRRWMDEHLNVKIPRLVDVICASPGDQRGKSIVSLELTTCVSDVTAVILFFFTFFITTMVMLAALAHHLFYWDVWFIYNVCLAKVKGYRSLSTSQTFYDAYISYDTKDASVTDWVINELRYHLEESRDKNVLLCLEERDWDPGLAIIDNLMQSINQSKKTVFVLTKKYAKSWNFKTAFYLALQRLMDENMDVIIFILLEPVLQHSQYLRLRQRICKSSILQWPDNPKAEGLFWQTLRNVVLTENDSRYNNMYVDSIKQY
Assay: HEK-TLR8 NF-κB-luciferase reporter, R848 or Motolimod stimulation (potentiation or inhibition)
Format: cell-based
Set-up: expressed in transfected cells; host or cells: 293XLhTLR8 (HEK293)
Conditions: for TLR8 100 nM (averaged NF-κB-Luciferase level relative to R848 condition, fold increase): ASO 100 nM; for TLR8 100 nM (averaged NF-κB-Luciferase level relative to R848 condition, fold increase) / TLR8 500 nM (averaged NF-κB-Luciferase level relative to R848 condition, fold increase): relative to R848 only; for TLR8 500 nM (averaged NF-κB-Luciferase level relative to R848 condition, fold increase): ASO 500 nM

| Sequence | TLR8 100 nM (averaged NF-κB-Luciferase level relative to R848 condition, fold increase) | TLR8 500 nM (averaged NF-κB-Luciferase level relative to R848 condition, fold increase) | TLR8 100 nM (MOE-modified ASO at 100 nM, averaged NF-κB-Luciferase relative to R848 condition (fold increase)) | TLR8 500 nM (MOE-modified ASO at 500 nM, averaged NF-κB-Luciferase relative to R848 condition (fold increase)) |
| --- | --- | --- | --- | --- |
| AAAGGACTGAGGAAAG (antisense; LNA-modified, pattern not given here) [CAMSAP1-6273 LNA KL] | 0.882 | 2.663 | – | – |
| AACACTTCGTGGGGTC (antisense; LNA-modified, pattern not given here) [HPRT LNA-666 V1] | 0.496 | 0.882 | – | – |
| AACCCCTTTCACCATC (antisense; LNA-modified, pattern not given here) [MB21D1-689 LNA KL] | 1.871 | 8.654 | – | – |
| AATCCAACAAAGTCTG (antisense; LNA-modified, pattern not given here) [HPRT LNA-692 KL] | 0.591 | 1.900 | – | – |
| ACACTTCGTGGGGTCCTTTT (antisense; 2'-MOE modified, pattern not given here) [HPRT-663 MOE] | – | – | 4.778 | 6.320 |
| ACCACGTCTGCTCTAA (antisense; LNA-modified, pattern not given here) [CAMSAP1-1635 LNA KL] | 0.933 | 4.259 | – | – |
| ACGTTCAGTCCTGTCC (antisense; LNA-modified, pattern not given here) [HPRT LNA-294 V1] | 0.356 | 0.493 | – | – |
| ACTTCGTGGGGTCCTT (antisense; LNA-modified, pattern not given here) [HPRT LNA-663 V1] | 0.820 | 3.672 | – | – |
| AGATTTCAGAGCAGCT (antisense; LNA-modified, pattern not given here) [EGFR-4885 LNA KL] | 0.401 | 0.770 | – | – |
| AGCTTCGAGGCCCCAG (antisense; LNA-modified, pattern not given here) [MB21D1-616 LNA V1] | 0.331 | 0.865 | – | – |
| AGGACTCCAGATGTTT (antisense; LNA-modified, pattern not given here) [HPRT LNA pos cont] | 0.278 | 1.034 | – | – |
| AGGCCCTTCGCACTTC (antisense; LNA-modified, pattern not given here) [EGFR-1225 LNA V1] | 0.507 | 0.967 | – | – |
| AGGTCTTGGCTTCGTG (antisense; LNA-modified, pattern not given here) [MB21D1-524 LNA V1] | 0.596 | 1.953 | – | – |
| AGTGTTGAGATACTCG (antisense; LNA-modified, pattern not given here) [EGFR-3652 LNA KL] | 0.427 | 0.599 | – | – |
| ATCTGGCAGCCCATCA (antisense; LNA-modified, pattern not given here) [CTNN2B-2516 LNA V1] | 0.808 | 2.628 | – | – |
| ATGGCCTCCCATCTCC (antisense; LNA-modified, pattern not given here) [HPRT LNA-330 V1] | 0.369 | 1.356 | – | – |
| ATGTGATGGCCTCCCA (antisense; LNA-modified, pattern not given here) [HPRT LNA-335 V1] | 0.637 | 1.840 | – | – |
| CACTTCGTGGGGTCCT (antisense; LNA-modified, pattern not given here) [HPRT LNA-664 V1] | 0.425 | 1.446 | – | – |
| CATCCACCACGTCGTC (antisense; LNA-modified, pattern not given here) [EGFR-3266 LNA V1] | 0.778 | 2.417 | – | – |
| CCAACACTTCGTGGGG (antisense; LNA-modified, pattern not given here) [HPRT LNA-668 V1] | 0.535 | 0.835 | – | – |
| CCACATCCTGTGGCTC (antisense; LNA-modified, pattern not given here) [CAMSAP1-2906 LNA V1] | 0.291 | 0.232 | – | – |
| CCACTTGGCAGACCAT (antisense; LNA-modified, pattern not given here) [CTNN2B-1575 LNA V1] | 0.684 | 1.213 | – | – |
| CCAGCAGGTCAGCAAA (antisense; LNA-modified, pattern not given here) [HPRT LNA-388 KL] | 0.412 | 1.499 | – | – |
| CCCACTTGGCAGACCA (antisense; LNA-modified, pattern not given here) [CTNN2B-1576 LNA V1] | 0.899 | 1.865 | – | – |
| CCTCCCATCTCCTTCA (antisense; LNA-modified, pattern not given here) [HPRT LNA-326 V1] | 1.469 | 6.759 | – | – |
| CCTTGCACGTGGCTTC (antisense; LNA-modified, pattern not given here) [EGFR-1013 LNA V1] | 1.315 | 2.414 | – | – |
